Test system: ANGIOTENSIN II VASOPRESSOR RESPONSE
Assay: AII Challenge: blockade of angiotensin II vasopressor response in conscious SHR
Assay type: in vivo, rat (Conscious Male Okamoto-Aoki SHR)
Conditions: SHR n=2
Summary of the method: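 Percent blockade is derived from the systolic pressure rise in mmHg, taking each rat's own predose response as 100%. Rats were conscious male Okamoto-Aoki SHR, 16-20 weeks, ~330 g, with aortic and caval cannulas under local procaine. Compound went i.v., i.p. or orally, then angiotensin II challenges (0.05 and 0.1 ug/kg i.v.) at 30-300 min.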

[1] = 3 mg/kg p.o., AII 0.05 mcg/kg IV, 30 min post dose
[2] = 3 mg/kg p.o., AII 0.05 mcg/kg IV, 60 min post dose
[3] = 3 mg/kg p.o., AII 0.05 mcg/kg IV, 90 min post dose
[4] = 3 mg/kg p.o., AII 0.05 mcg/kg IV, 120 min post dose
[5] = 3 mg/kg p.o., AII 0.05 mcg/kg IV, 180 min post dose
[6] = 3 mg/kg p.o., AII 0.05 mcg/kg IV, 240 min post dose
[7] = 3 mg/kg p.o., AII 0.1 mcg/kg IV, 30 min post dose
[8] = 3 mg/kg p.o., AII 0.1 mcg/kg IV, 60 min post dose
[9] = 3 mg/kg p.o., AII 0.1 mcg/kg IV, 90 min post dose
[10] = 3 mg/kg p.o., AII 0.1 mcg/kg IV, 120 min post dose
[11] = 3 mg/kg p.o., AII 0.1 mcg/kg IV, 180 min post dose
[12] = 3 mg/kg p.o., AII 0.1 mcg/kg IV, 240 min post dose
[13] = 10 mg/kg p.o., AII 0.05 mcg/kg IV, 30 min post dose
[14] = 10 mg/kg p.o., AII 0.05 mcg/kg IV, 60 min post dose
[15] = 10 mg/kg p.o., AII 0.05 mcg/kg IV, 90 min post dose
[16] = 10 mg/kg p.o., AII 0.05 mcg/kg IV, 120 min post dose
[17] = 10 mg/kg p.o., AII 0.05 mcg/kg IV, 180 min post dose
[18] = 10 mg/kg p.o., AII 0.05 mcg/kg IV, 240 min post dose
[19] = 10 mg/kg p.o., AII 0.05 mcg/kg IV, 300 min post dose
[20] = 10 mg/kg p.o., AII 0.1 mcg/kg IV, 30 min post dose
[21] = 10 mg/kg p.o., AII 0.1 mcg/kg IV, 60 min post dose
[22] = 10 mg/kg p.o., AII 0.1 mcg/kg IV, 90 min post dose
[23] = 10 mg/kg p.o., AII 0.1 mcg/kg IV, 120 min post dose
[24] = 10 mg/kg p.o., AII 0.1 mcg/kg IV, 180 min post dose
[25] = 10 mg/kg p.o., AII 0.1 mcg/kg IV, 240 min post dose
[26] = 10 mg/kg p.o., AII 0.1 mcg/kg IV, 300 min post dose
[27] = 3 mg/kg p.o., AII 0.05 mcg/kg IV, 300 min post dose
[28] = 3 mg/kg p.o., AII 0.1 mcg/kg IV, 300 min post dose
[29] = 10 mg/kg i.v., AII 0.05 mcg/kg IV, 30 min post dose
[30] = 10 mg/kg i.v., AII 0.05 mcg/kg IV, 60 min post dose
[31] = 10 mg/kg i.v., AII 0.05 mcg/kg IV, 90 min post dose
[32] = 10 mg/kg i.v., AII 0.05 mcg/kg IV, 120 min post dose
[33] = 10 mg/kg i.v., AII 0.05 mcg/kg IV, 180 min post dose
[34] = 10 mg/kg i.v., AII 0.05 mcg/kg IV, 240 min post dose
[35] = 10 mg/kg i.v., AII 0.05 mcg/kg IV, 300 min post dose
[36] = 10 mg/kg i.v., AII 0.1 mcg/kg IV, 30 min post dose
[37] = 10 mg/kg i.v., AII 0.1 mcg/kg IV, 60 min post dose
[38] = 10 mg/kg i.v., AII 0.1 mcg/kg IV, 90 min post dose
[39] = 10 mg/kg i.v., AII 0.1 mcg/kg IV, 120 min post dose
[40] = 10 mg/kg i.v., AII 0.1 mcg/kg IV, 180 min post dose
[41] = 10 mg/kg i.v., AII 0.1 mcg/kg IV, 240 min post dose
[42] = 10 mg/kg i.v., AII 0.1 mcg/kg IV, 300 min post dose

SMILES: CCCCc1nc2ccc(C(O)C3CCCN(C)C3=O)cc2c(=O)n1Cc1ccc(-c2ccccc2-c2nn[nH]n2)cc1 (single isomer, unassigned; isomer 2) [Example 38, 2-Butyl-6-hydroxy(1-methyl-2-oxo-3-piperidinyl)methyl-3-[[2'-(1H-tetrazol-5-yl)[1,1'-biphenyl]-4-yl]methyl-4(3H)-quinazolinone isomer 2]
- % Inhibition of AII vasopressor response [1]: 70%
- Average Change (systolic blood pressure response to AII) [1]: 7.5 mmHg
- % Inhibition of AII vasopressor response [2]: 50%
- Average Change (systolic blood pressure response to AII) [2]: 12.5 mmHg
- % Inhibition of AII vasopressor response [3]: 46%
- Average Change (systolic blood pressure response to AII) [3]: 13.5 mmHg
- % Inhibition of AII vasopressor response [4]: 70%
- Average Change (systolic blood pressure response to AII) [4]: 7.5 mmHg
- % Inhibition of AII vasopressor response [5]: 70%
- Average Change (systolic blood pressure response to AII) [5]: 7.5 mmHg
- % Inhibition of AII vasopressor response [6]: 40%
- Average Change (systolic blood pressure response to AII) [6]: 15 mmHg
- % Inhibition of AII vasopressor response [7]: 57%
- Average Change (systolic blood pressure response to AII) [7]: 15 mmHg
- % Inhibition of AII vasopressor response [8]: 20%
- Average Change (systolic blood pressure response to AII) [8]: 27.5 mmHg
- % Inhibition of AII vasopressor response [9]: 32%
- Average Change (systolic blood pressure response to AII) [9]: 23.5 mmHg
- % Inhibition of AII vasopressor response [10]: 52%
- Average Change (systolic blood pressure response to AII) [10]: 16.5 mmHg
- % Inhibition of AII vasopressor response [11]: 28%
- Average Change (systolic blood pressure response to AII) [11]: 25 mmHg
- % Inhibition of AII vasopressor response [12]: 16%
- Average Change (systolic blood pressure response to AII) [12]: 29 mmHg
- % Inhibition of AII vasopressor response [13]: 50%
- Average Change (systolic blood pressure response to AII) [13]: 25 mmHg
- % Inhibition of AII vasopressor response [14]: 40%
- Average Change (systolic blood pressure response to AII) [14]: 30 mmHg
- % Inhibition of AII vasopressor response [15]: 25%
- Average Change (systolic blood pressure response to AII) [15]: 37.5 mmHg
- % Inhibition of AII vasopressor response [16]: 50%
- Average Change (systolic blood pressure response to AII) [16]: 25 mmHg
- % Inhibition of AII vasopressor response [17]: 5%
- Average Change (systolic blood pressure response to AII) [17]: 47.5 mmHg
- % Inhibition of AII vasopressor response [18]: -5%
- Average Change (systolic blood pressure response to AII) [18]: 52.5 mmHg
- % Inhibition of AII vasopressor response [19]: 0%
- Average Change (systolic blood pressure response to AII) [19]: 50 mmHg
- % Inhibition of AII vasopressor response [20]: 35%
- Average Change (systolic blood pressure response to AII) [20]: 37.5 mmHg
- % Inhibition of AII vasopressor response [21]: 39%
- Average Change (systolic blood pressure response to AII) [21]: 35 mmHg
- % Inhibition of AII vasopressor response [22]: 35%
- Average Change (systolic blood pressure response to AII) [22]: 37.5 mmHg
- % Inhibition of AII vasopressor response [23]: 43%
- Average Change (systolic blood pressure response to AII) [23]: 32.5 mmHg
- % Inhibition of AII vasopressor response [24]: 13%
- Average Change (systolic blood pressure response to AII) [24]: 50 mmHg
- % Inhibition of AII vasopressor response [25]: 22%
- Average Change (systolic blood pressure response to AII) [25]: 45 mmHg
- % Inhibition of AII vasopressor response [26]: 4%
- Average Change (systolic blood pressure response to AII) [26]: 55 mmHg

SMILES: CCCCc1nc2ccc(C(OC)C3CCCN(C)C3=O)cc2c(=O)n1Cc1ccc(-c2ccccc2-c2nn[nH]n2)cc1 (single isomer, unassigned; isomer 2) [Example 43, 2-Butyl-6-[methoxy(1-methyl-2-oxo-3-piperidinyl)methyl]-3-[[2'-(1H-tetrazol-5-yl)[1,1'-biphenyl]-4-yl]methyl]-4(3H)-quinazoline isomer 2]
- % Inhibition of AII vasopressor response [1]: 24%
- Average Change (systolic blood pressure response to AII) [1]: 32.5 mmHg
- % Inhibition of AII vasopressor response [2]: 47%
- Average Change (systolic blood pressure response to AII) [2]: 22.5 mmHg
- % Inhibition of AII vasopressor response [3]: 53%
- Average Change (systolic blood pressure response to AII) [3]: 20 mmHg
- % Inhibition of AII vasopressor response [4]: 53%
- Average Change (systolic blood pressure response to AII) [4]: 20 mmHg
- % Inhibition of AII vasopressor response [5]: 59%
- Average Change (systolic blood pressure response to AII) [5]: 17.5 mmHg
- % Inhibition of AII vasopressor response [6]: 35%
- Average Change (systolic blood pressure response to AII) [6]: 27.5 mmHg
- % Inhibition of AII vasopressor response [27]: 6%
- Average Change (systolic blood pressure response to AII) [27]: 40 mmHg
- % Inhibition of AII vasopressor response [7]: 19%
- Average Change (systolic blood pressure response to AII) [7]: 32.5 mmHg
- % Inhibition of AII vasopressor response [8]: 19%
- Average Change (systolic blood pressure response to AII) [8]: 32.5 mmHg
- % Inhibition of AII vasopressor response [9]: 56%
- Average Change (systolic blood pressure response to AII) [9]: 17.5 mmHg
- % Inhibition of AII vasopressor response [10]: 44%
- Average Change (systolic blood pressure response to AII) [10]: 22.5 mmHg
- % Inhibition of AII vasopressor response [11]: 6%
- Average Change (systolic blood pressure response to AII) [11]: 37.5 mmHg
- % Inhibition of AII vasopressor response [12]: 13%
- Average Change (systolic blood pressure response to AII) [12]: 35 mmHg
- % Inhibition of AII vasopressor response [28]: 8%
- Average Change (systolic blood pressure response to AII) [28]: 37 mmHg
- % Inhibition of AII vasopressor response [29]: 100%
- Average Change (systolic blood pressure response to AII) [29]: 0 mmHg
- % Inhibition of AII vasopressor response [30]: 77%
- Average Change (systolic blood pressure response to AII) [30]: 7.5 mmHg
- % Inhibition of AII vasopressor response [31]: 69%
- Average Change (systolic blood pressure response to AII) [31]: 10 mmHg
- % Inhibition of AII vasopressor response [32]: 69%
- Average Change (systolic blood pressure response to AII) [32]: 10 mmHg
- % Inhibition of AII vasopressor response [33]: 58%
- Average Change (systolic blood pressure response to AII) [33]: 13.5 mmHg
- % Inhibition of AII vasopressor response [34]: 0%
- Average Change (systolic blood pressure response to AII) [34]: 32.5 mmHg
- % Inhibition of AII vasopressor response [35]: 8%
- Average Change (systolic blood pressure response to AII) [35]: 30 mmHg
- % Inhibition of AII vasopressor response [36]: 92%
- Average Change (systolic blood pressure response to AII) [36]: 2.5 mmHg
- % Inhibition of AII vasopressor response [37]: 84%
- Average Change (systolic blood pressure response to AII) [37]: 5 mmHg
- % Inhibition of AII vasopressor response [38]: 84%
- Average Change (systolic blood pressure response to AII) [38]: 5 mmHg
- % Inhibition of AII vasopressor response [39]: 68%
- Average Change (systolic blood pressure response to AII) [39]: 10 mmHg
- % Inhibition of AII vasopressor response [40]: 44%
- Average Change (systolic blood pressure response to AII) [40]: 17.5 mmHg
- % Inhibition of AII vasopressor response [41]: 56%
- Average Change (systolic blood pressure response to AII) [41]: 13.5 mmHg
- % Inhibition of AII vasopressor response [42]: 19%
- Average Change (systolic blood pressure response to AII) [42]: 25 mmHg

— patent US5288720A, “Angiotensin II receptor blocking 2,3,6 substituted quinazolinones” (American Cyanamid Company, priority 1993, dated 1994)
